Measurements reported in patent publication US20250026746A1, “ENHANCERS OF PARTICULATE GUANYLYL CYCLASE RECEPTOR A” (Mayo Foundation for Medical Education and Research, priority 2021, published 2025).

Target: T1, human GC-A (Homo sapiens, UniProt P16066)
T1 construct: host or cells: HEK293
T1 sequence (P16066 33-1061): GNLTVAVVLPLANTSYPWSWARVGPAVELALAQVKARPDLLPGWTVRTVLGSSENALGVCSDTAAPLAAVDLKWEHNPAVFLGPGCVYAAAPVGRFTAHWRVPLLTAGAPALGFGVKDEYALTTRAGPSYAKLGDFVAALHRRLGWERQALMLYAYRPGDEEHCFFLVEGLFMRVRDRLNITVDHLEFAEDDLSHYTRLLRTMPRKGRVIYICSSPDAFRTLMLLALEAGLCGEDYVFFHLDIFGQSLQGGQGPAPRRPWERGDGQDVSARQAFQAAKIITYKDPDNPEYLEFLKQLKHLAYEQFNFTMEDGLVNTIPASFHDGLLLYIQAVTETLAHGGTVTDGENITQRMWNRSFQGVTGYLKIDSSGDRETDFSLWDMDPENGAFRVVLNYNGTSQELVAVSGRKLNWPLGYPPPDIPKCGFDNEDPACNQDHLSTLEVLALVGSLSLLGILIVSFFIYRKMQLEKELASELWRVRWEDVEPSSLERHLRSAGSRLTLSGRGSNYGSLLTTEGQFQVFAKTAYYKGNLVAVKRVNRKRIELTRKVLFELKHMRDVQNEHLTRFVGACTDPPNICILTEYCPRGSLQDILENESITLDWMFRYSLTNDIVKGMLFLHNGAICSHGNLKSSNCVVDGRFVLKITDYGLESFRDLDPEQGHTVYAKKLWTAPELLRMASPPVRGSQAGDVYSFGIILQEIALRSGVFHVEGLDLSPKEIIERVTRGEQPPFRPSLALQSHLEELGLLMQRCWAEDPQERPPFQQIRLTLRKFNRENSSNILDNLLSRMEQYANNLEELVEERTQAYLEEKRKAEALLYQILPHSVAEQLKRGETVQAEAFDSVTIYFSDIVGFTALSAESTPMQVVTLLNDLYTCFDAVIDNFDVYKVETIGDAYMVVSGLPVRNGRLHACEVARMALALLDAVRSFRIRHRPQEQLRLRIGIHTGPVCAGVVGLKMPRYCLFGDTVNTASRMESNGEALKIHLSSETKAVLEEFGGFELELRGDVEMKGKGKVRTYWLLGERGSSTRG
T1 sequence (P01160 124-151 partner limits assumed): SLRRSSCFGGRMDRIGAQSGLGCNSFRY
Assay: EC50 and Emax cGMP determination, HTRF, human GC-A overexpressing HEK293 cells
Assay type: cell-based
Conditions: HEK293 GC-A cells
Experimental: Test compounds were evaluated for potentiation of cGMP in human GC-A overexpressing HEK293 cells (Cardiorenal Research Laboratory, Mayo Clinic). Test compounds at 10 mM DMSO stock concentration were dispensed into 384 well small volume white plates using Tecan D300e digital dispenser starting at 5 μM or 40 μM concentration and diluted 2-fold for 10-point concentration response. Wells were backfilled with DMSO such that the final concentration of DMSO in all wells was maintained at 0.3% DMSO. Atrial natriuretic peptide (ANP, Phoenix Pharmaceuticals) ANP was prepared as working stock aliquots at 5 μM in phosphate-buffered solution (PBS) with 0.1% bovine serum albumin (BSA) and diluted to […] in buffer plus Tween20 at 0.3% and added to plates to a final concentration equivalent to EC20 ANP in the cGMP assay. GC-A cells in suspension ([…]) in OptiMem media (ThermoFisher 11058-021) supplemented with 2% fetal bovine serum were plated at 1×10^6 cells/mL and assay plates were spun at 1000 rpm for 30 sec and incubated at room temperature for 30 min. GC-A-mediated activation of cGMP production was measured using cGMP CisBio detection homogenous time-resolved florescence (HTRF) competition assay using labeled-cGMP in human GC-A-overexpressing HEK293 cells. 5 μL of d-2 acceptor was dispensed into each well followed by addition of 5 μL of Anti-cGMP Eu-Cryptate antibody donor and plates were spun at 1000 rpm for 30 sec and incubated in the dark at room temperature for 1 hr. HTRF florescence was read on the ClarioStar microplate reader (BMG). A 100% response was determined from wells in the absence of compound and presence of saturating concentration of ANP (10 nM), and 0) % response was determined from wells containing an EC20 concentration of ANP determined for each new lot of ANP. Concentration-response curves for test compounds were analyzed by […] analysis using GraphPad software to determine EC50 and Emax values.

potency in potentiating ANP-mediated cGMP generation (comparison between forms/enantiomers): more potent
SMILES: CN(C)CCN1CCC[C@H](C(=O)Nc2nc3c(F)cc(F)cc3s2)C1 [Compound 1, (S)-N-(4,6-difluorobenzo[d]thiazol-2-yl)-1-(2-(dimethylamino)ethyl) piperidine-3-carboxamide]
